± gives the expanded uncertainty stated by the source.
Columns and labels:
[1] = xn = mol fraction of the nth substance listed

CCCCO [butan-1-ol]
Conditions	surface tension liquid-gas [mN/m]
283.15 K	25.55 ± 0.29
288.15 K	25.12 ± 0.29
293.15 K	24.78 ± 0.29
298.15 K	24.25 ± 0.29
303.15 K	23.95 ± 0.29
308.15 K	23.55 ± 0.28
313.15 K	23.15 ± 0.28

CCC(C)O (stereo unspecified) [butan-2-ol] + CCCCCC
surface tension liquid-gas [mN/m], [1]
Conditions	283.15 K	288.15 K	293.15 K	298.15 K	303.15 K	308.15 K	313.15 K
x1 = 0.0493	19.75 ± 0.28	19.16 ± 0.28	18.62 ± 0.27	18.11 ± 0.27	17.52 ± 0.26	16.69 ± 0.26	16.33 ± 0.26
x1 = 0.1057	19.84 ± 0.28	19.24 ± 0.28	18.7 ± 0.3	18.14 ± 0.27	17.53 ± 0.26	16.66 ± 0.26	16.26 ± 0.26
x1 = 0.2083	20 ± 0.28	19.36 ± 0.28	18.8 ± 0.3	18.21 ± 0.27	17.62 ± 0.27	16.81 ± 0.26	16.41 ± 0.26
x1 = 0.3004	20.18 ± 0.28	19.52 ± 0.28	18.95 ± 0.27	18.37 ± 0.27	17.82 ± 0.27	17.08 ± 0.26	16.7 ± 0.26
x1 = 0.4002	20.43 ± 0.28	19.77 ± 0.28	19.21 ± 0.28	18.67 ± 0.27	18.16 ± 0.27	17.5 ± 0.26	17.13 ± 0.26
x1 = 0.4962	20.72 ± 0.29	20.13 ± 0.28	19.6 ± 0.28	19.09 ± 0.28	18.6 ± 0.3	18.01 ± 0.27	17.62 ± 0.27
x1 = 0.5948	21.1 ± 0.29	20.57 ± 0.29	20.13 ± 0.28	19.61 ± 0.28	19.18 ± 0.28	18.6 ± 0.27	18.22 ± 0.27
x1 = 0.6968	21.64 ± 0.29	21.2 ± 0.29	20.76 ± 0.29	20.26 ± 0.28	19.84 ± 0.28	19.33 ± 0.28	18.92 ± 0.27
x1 = 0.8018	22.35 ± 0.3	21.9 ± 0.29	21.52 ± 0.29	21.04 ± 0.29	20.67 ± 0.29	20.18 ± 0.28	19.74 ± 0.28
x1 = 0.8964	23.18 ± 0.3	22.74 ± 0.3	22.34 ± 0.3	21.88 ± 0.29	21.52 ± 0.29	21.12 ± 0.29	20.73 ± 0.29
x1 = 0.9492	23.73 ± 0.31	23.31 ± 0.3	22.9 ± 0.3	22.43 ± 0.3	22.11 ± 0.3	21.73 ± 0.29	21.33 ± 0.29

CCCCCC [hexane] + CCO
surface tension liquid-gas [mN/m], [1]
Conditions	283.15 K	288.15 K	293.15 K	298.15 K	303.15 K	308.15 K	313.15 K
x2 = 0.0855	19.7 ± 0.28	19.11 ± 0.27	18.57 ± 0.27	18.03 ± 0.27	17.49 ± 0.26	16.67 ± 0.26	16.3 ± 0.25
x2 = 0.1006	19.74 ± 0.28	19.11 ± 0.27	18.56 ± 0.27	18.03 ± 0.27	17.48 ± 0.26	16.66 ± 0.26	16.29 ± 0.25
x2 = 0.2107	19.73 ± 0.27	19.1 ± 0.3	18.55 ± 0.27	18.01 ± 0.26	17.42 ± 0.26	16.64 ± 0.25	16.2 ± 0.3
x2 = 0.2928	19.77 ± 0.27	19.18 ± 0.27	18.57 ± 0.27	18.03 ± 0.26	17.46 ± 0.26	16.68 ± 0.25	16.24 ± 0.25
x2 = 0.4128	19.9 ± 0.27	19.29 ± 0.27	18.71 ± 0.26	18.15 ± 0.26	17.57 ± 0.26	16.85 ± 0.25	16.38 ± 0.25
x2 = 0.5071	20.08 ± 0.27	19.46 ± 0.27	18.84 ± 0.26	18.29 ± 0.26	17.72 ± 0.26	17.04 ± 0.25	16.56 ± 0.25
x2 = 0.5909	20.26 ± 0.27	19.67 ± 0.27	19.02 ± 0.26	18.45 ± 0.26	17.93 ± 0.26	17.26 ± 0.25	16.74 ± 0.25
x2 = 0.7036	20.61 ± 0.27	20.02 ± 0.27	19.36 ± 0.26	18.8 ± 0.26	18.26 ± 0.26	17.7 ± 0.25	17.21 ± 0.25
x2 = 0.8032	21.05 ± 0.27	20.46 ± 0.27	19.88 ± 0.27	19.32 ± 0.26	18.82 ± 0.26	18.31 ± 0.26	17.85 ± 0.25
x2 = 0.9021	21.78 ± 0.27	21.28 ± 0.27	20.73 ± 0.27	20.22 ± 0.27	19.81 ± 0.26	19.38 ± 0.26	18.91 ± 0.26
x2 = 0.932	22.11 ± 0.28	21.64 ± 0.27	21.11 ± 0.27	20.64 ± 0.27	20.22 ± 0.27	19.82 ± 0.26	19.36 ± 0.26

Reference: the NIST ThermoML archive (doi:10.1021/je700215z)
